From US8778959B2, “AZA-bridged ring-fused indoles and indolines” (AbbVie Inc., priority 2009, dated 2014)
pEC50: −log10 of the molar value.

Test system: SK-N-SH human neuroblastoma cells
Assay: Serum Deprivation/JC-1 Mitochondrial Membrane Potential (MMP) Assay
Format: cell-based
Details: for Emax: percent maximal intensity in JC-1 ratio normalized to peak value for 10 μM dimebolin, read-out: JC-1 max %; for pEC50: serum deprivation ~18 hours, JC-1 ratio normalized to peak value for 10 μM dimebolin, single curve fit to mean of n=2-3
Method: SK-N-SH human neuroblastoma cells obtained from American Type Culture Collection (Rockville, Md.) were maintained in the log phase of growth in Minimal Essential Media (MEM), 10% heat inactivated fetal calf serum and 100 units/mL antibiotic-antimycotic (AA). Cells were cultured and maintained in a humidified incubator at 37° C. under 5% CO2 and 95% air. Cells were trypsinized (0.25%) and subcultured every 3 days and used from 15-18 passages. All cell culture supplies were obtained from Invitrogen (Carlsbad, Calif.).
SK-N-SH cells were plated 2-3 days in advance at a concentration of 50,000 cells/well onto collagen coated black-walled 96 well plates (Becton-Dickinson, Bedford, Mass.) in a total volume of 200 μL. On day of experimental treatment, the media containing serum was aspirated from each well and rinsed once with MEM/1% AA without serum. The cells then were incubated overnight in 100 μL of MEM/1% AA (no serum) with and without dimebolin or novel chemical entities overnight for ˜18 hours. The following day, JC-1 dye (5,5′,6,6′-tetrachloro-1,1′,3,3′-tetraethylbenzimidazolcarbocyanide) was diluted 1:10 into MEM media according to the JC-1 Mitochondrial Membrane Potential Assay Kit: (Cayman Chemical Company, Ann Arbor, Mich.) and then 10 μL of the JC-1 dye solution was added to each well. The plates were centrifuged for 5 minutes at 400×g at room temperature followed by 35 minute incubation at 37° C. The plates were washed twice with 200 μL of provided Assay Buffer followed an addition of 100 μL of Assay Buffer to each well. The plates were read with an excitation and emission of 560 nm and 595 nM for red fluorescence and with an excitation and emission of […] and 535 nM for green fluorescence to determine the final JC-1 value taking the red to green fluorescence ratio. This assay is based on change in mitochondrial membrane potential (MMP) using this lipophilic cationic dye, JC-1, by monitoring the changes in the ratio of red to green fluorescence as the MMP depolarizes. This change in MMP reflects the health of the cell with healthy, viable cells have a high JC-1 ratio and high MMP whereas apoptotic, unhealthy cells have a low JC-1 ratio or low MMP.
For the ability of compounds to reverse the stress due to serum deprivation and increase the JC-1 ratio, the percent maximal intensity in JC-1 ratio was normalized to that induced by the peak value for 10 μM dimebolin and plotted against the compound concentration to calculate EC50 values and to control for plate-to-plate variability. Concentration-response data were analyzed using GraphPad Prism (San Diego, Calif.); the EC50 values were derived from a single curve fit to the mean data of n=2-3, in duplicates.
All compounds were dissolved in dimethyl sulfoxide at 10 mM stock solutions and tested at a concentration that the dimethyl sulfoxide levels never exceeded 1%.

Row | SMILES | Emax (Homo sapiens, SK-N-SH, 18 h) | pEC50 (Homo sapiens, SK-N-SH, 18 h) | pEC50
1 | Cc1ccc(/C=C/c2cccc3c4c([nH]c23)C[C@H]2CC[C@@H]4N2)cn1 (single isomer, unassigned) [Example 25] | 173% | 5.20 | 5.22
2 | CN1[C@@H]2CC[C@H]1c1c([nH]c3c(OCc4ccccc4)cccc13)C2 (stereo in doubt) [Example 5, (7R*,10S*)-4-(benzyloxy)-11-methyl-5,6,7,8,9,10-hexahydro-7,10-epiminocyclohepta[b]indole] | 24% | < 4.52 | 
3 | CN1[C@H]2CC[C@@H]1c1c([nH]c3c(OCc4ccccc4)cccc13)C2 (stereo in doubt) [Example 6, (7S*,10R*)-4-(benzyloxy)-11-methyl-5,6,7,8,9,10-hexahydro-7,10-epiminocyclohepta[b]indole] | 55% | 5.34 | 
4 | CN1[C@@H]2CCC[C@H]1c1c([nH]c3c(OCc4ccccc4)cccc13)C2 (stereo in doubt) [Example 7, (−)-(7R*,11S*)-4-(benzyloxy)-12-methyl-6,7,8,9,10,11-hexahydro-5H-7,11-epiminocycloocta[b]indole] | 120% | 5.27 | 
5 | CN1[C@H]2CCC[C@@H]1c1c([nH]c3c(OCc4ccccc4)cccc13)C2 (stereo in doubt) [Example 8, (+)-(7S*,11R*)-4-(benzyloxy)-12-methyl-6,7,8,9,10,11-hexahydro-5H-7,11-epiminocycloocta[b]indole] | 107% | 5.07 | 
6 | c1ccc(COc2cccc3c4c([nH]c23)C[C@@H]2CCC[C@H]4N2)cc1 (stereo in doubt) [Example 10, (7S*,11R*)-4-(benzyloxy)-6,7,8,9,10,11-hexahydro-5H-7,11-epiminocycloocta[b]indole] | 128% | 5.32 | 
7 | Cc1ccc(/C=C/c2cccc3c4c([nH]c23)C[C@@H]2CC[C@H]4N2C)cn1 (stereo in doubt) [Example 14, (+)-(7S*,10R*)-11-methyl-4-[(E)-2-(6-methylpyridin-3-yl)vinyl]-5,6,7,8,9,10-hexahydro-7,10-epiminocyclohepta[b]indole] | 162% | 5.36 | 
8 | Cc1ccc(/C=C/c2cccc3c4c([nH]c23)C[C@H]2CC[C@@H]4N2C)cn1 (stereo in doubt) [Example 15, (−)-(7R*,10S*)-11-methyl-4-[(E)-2-(6-methylpyridin-3-yl)vinyl]-5,6,7,8,9,10-hexahydro-7,10-epiminocyclohepta[b]indole] | 160% | 5.52 | 
9 | Cc1ccc(C#Cc2cccc3c4c([nH]c23)C[C@@H]2CC[C@H]4N2C)cn1 (stereo in doubt) [Example 16, (+)-(7S*,10R*)-11-methyl-4-[(6-methylpyridin-3-yl)ethynyl]-5,6,7,8,9,10-hexahydro-7,10-epiminocyclohepta[b]indole] | 193% | 5.29 | 
10 | Cc1ccc(C#Cc2cccc3c4c([nH]c23)C[C@H]2CC[C@@H]4N2C)cn1 (stereo in doubt) [Example 17, (−)-(7R*,10S*)-11-methyl-4-[(6-methylpyridin-3-yl)ethynyl]-5,6,7,8,9,10-hexahydro-7,10-epiminocyclohepta[b]indole] | 182% | 5.41 | 
11 | Cc1ccc(CCc2cccc3c4c([nH]c23)CC2CCC4N2C)cn1 (stereo not drawn) [Example 2, 11-methyl-4-[2-(6-methylpyridin-3-yl)ethyl]-5,6,7,8,9,10-hexahydro-7,10-epiminocyclohepta[b]indole] | 173% | 5.28 | 
12 | Cc1ccc(C#Cc2cccc3c4c([nH]c23)CC2CCC4N2C)cn1 (stereo not drawn) [Example 3, 11-methyl-4-[(6-methylpyridin-3-yl)ethynyl]-5,6,7,8,9,10-hexahydro-7,10-epiminocyclohepta[b]indole] | 244% | 5.21 | 
13 | Cc1ccc(/C=C/c2ccc3[nH]c4c(c3c2)C2CCC(C4)N2C)cn1 (stereo not drawn) [Example 4, 11-methyl-2-[(E)-2-(6-methylpyridin-3-yl)vinyl]-5,6,7,8,9,10-hexahydro-7,10-epiminocyclohepta[b]indole] | 239% | 5.44 | 
14 | CN1C2CCC1c1c([nH]c3c(-c4ccc(Cl)cc4)cccc13)C2 (stereo not drawn) [Example 11, 4-(4-chlorophenyl)-11-methyl-5,6,7,8,9,10-hexahydro-7,10-epiminocyclohepta[b]indole] | 74% | 5.10 | 
15 | Cc1ccc(/C=C/c2cc(F)cc3c4c([nH]c23)CC2CCC4N2C)cn1 (stereo not drawn) [Example 12, 2-fluoro-11-methyl-4-[(E)-2-(6-methylpyridin-3-yl)vinyl]-5,6,7,8,9,10-hexahydro-7,10-epiminocyclohepta[b]indole] | 200% | 5.11 | 
16 | Cc1ccc(/C=C/c2cccc3c4c([nH]c23)CC2CCC4N2)cn1 (stereo not drawn) [Example 13, 4-[(E)-2-(6-methylpyridin-3-yl)vinyl]-5,6,7,8,9,10-hexahydro-7,10-epiminocyclohepta[b]indole] | 164% | 5.34 | 
17 | CC(=O)N1C2CCC1c1c([nH]c3c(/C=C/c4ccc(C)nc4)cccc13)C2 (stereo not drawn) [Example 18, 11-acetyl-4-[(E)-2-(6-methylpyridin-3-yl)vinyl]-5,6,7,8,9,10-hexahydro-7,10-epiminocyclohepta[b]indole] | 146% | 4.97 | 
18 | COC(=O)N1C2CCC1c1c([nH]c3c(/C=C/c4ccc(C)nc4)cccc13)C2 (stereo not drawn) [Example 19, methyl 4-[(E)-2-(6-methylpyridin-3-yl)vinyl]-5,6,7,8,9,10-hexahydro-7,10-epiminocyclohepta[b]indole-11-carboxylate] | 178% | 5.27 | 
19 | COC(=O)N1C2CCC1c1c([nH]c3c(-c4ccc5ccncc5c4)cccc13)C2 (stereo not drawn) [Example 20, methyl 4-isoquinolin-7-yl-5,6,7,8,9,10-hexahydro-7,10-epiminocyclohepta[b]indole-11-carboxylate] | 292% | 5.00 | 
20 | COC(=O)N1C2CCC1c1c([nH]c3c(-c4ccc5ncccc5c4)cccc13)C2 (stereo not drawn) [Example 22, methyl 4-quinolin-6-yl-5,6,7,8,9,10-hexahydro-7,10-epiminocyclohepta[b]indole-11-carboxylate] | 204% | 5.19 | 
21 | CC(=O)N1C2CCC1c1c([nH]c3c(-c4ccc5ncccc5c4)cccc13)C2 (stereo not drawn) [Example 23, 11-acetyl-4-quinolin-6-yl-5,6,7,8,9,10-hexahydro-7,10-epiminocyclohepta[b]indole] | 209% | 5.21 | 
22 | Cc1ccc(/C=C/c2cccc3c4c(n(C)c23)CC2CCC4N2)cn1 (stereo not drawn) [Example 24, 5-methyl-4-[(E)-2-(6-methylpyridin-3-yl)vinyl]-5,6,7,8,9,10-hexahydro-7,10-epiminocyclohepta[b]indole] | 217% | 5.41 | 
23 | Clc1ccc(-c2cccc3c4c([nH]c23)CC2CCC4N2)cn1 (stereo not drawn) [Example 27, 4-(6-chloropyridin-3-yl)-5,6,7,8,9,10-hexahydro-7,10-epiminocyclohepta[b]indole] | 104% | 4.99 | 
24 | Clc1ccc(-c2ccc(-c3cccc4c5c([nH]c34)CC3CCC5N3)cn2)cn1 (stereo not drawn) [Example 28, 4-(6′-chloro-2,3′-bipyridin-5-yl)-5,6,7,8,9,10-hexahydro-7,10-epiminocyclohepta[b]indole] | 118% | 5.26 | 
25 | CC(=O)N1C2CCC1c1c([nH]c3c(-c4ccc(Cl)nc4)cccc13)C2 (stereo not drawn) [Example 29, 1-[4-(6-chloropyridin-3-yl)-5,6,7,8,9,10-hexahydro-7,10-epiminocyclohepta[b]indol-11-yl]ethanone] | 114% | 5.27 | 
26 | Cc1ccc(/C=C/c2cccc3c4c([nH]c23)CC2CNC4C2)cn1 (stereo not drawn) [Example 30, 7-[(E)-2-(6-methylpyridin-3-yl)vinyl]-1,2,3,4,5,6-hexahydro-1,4-methanoazepino[4,3-b]indole] | 118% | 5.25 | 
27 | c1cc(-c2ccncc2)c2[nH]c3c(c2c1)C1CCC(C3)N1 (stereo not drawn) [Example 31, 4-(pyridin-4-yl)-5,6,7,8,9,10-hexahydro-7,10-epiminocyclohepta[b]indole] | 22.3% | < 4.50 | 
28 | c1ccc2ncc(-c3cccc4c5c([nH]c34)CC3CCC5N3)cc2c1 (stereo not drawn) [Example 32, 4-(quinolin-3-yl)-5,6,7,8,9,10-hexahydro-7,10-epiminocyclohepta[b]indole] | 174% | 5.59 | 
